Each block holds one compound with its values, some of them ahead of it.
Legend:
Type in all cases: biochemical
HYAL1 [1] = target: T1, HYAL1 (Homo sapiens, UniProt Q12794); assay: Anti-HYAL1 activity of Epidarus Extract Mix after incubation with antimicrobial agents; conditions: agent at 0.3%; 5 mg/ml Epidarus Extract Mix in 5% 1,3 Propanediol/Water, 48 hours, 37 degrees; relative to control without agent
T1 construct: Human HYAL1 enzyme was isolated from urine following published protocols; from tissue; host or cells: human urine
T1 sequence (Q12794 22-435): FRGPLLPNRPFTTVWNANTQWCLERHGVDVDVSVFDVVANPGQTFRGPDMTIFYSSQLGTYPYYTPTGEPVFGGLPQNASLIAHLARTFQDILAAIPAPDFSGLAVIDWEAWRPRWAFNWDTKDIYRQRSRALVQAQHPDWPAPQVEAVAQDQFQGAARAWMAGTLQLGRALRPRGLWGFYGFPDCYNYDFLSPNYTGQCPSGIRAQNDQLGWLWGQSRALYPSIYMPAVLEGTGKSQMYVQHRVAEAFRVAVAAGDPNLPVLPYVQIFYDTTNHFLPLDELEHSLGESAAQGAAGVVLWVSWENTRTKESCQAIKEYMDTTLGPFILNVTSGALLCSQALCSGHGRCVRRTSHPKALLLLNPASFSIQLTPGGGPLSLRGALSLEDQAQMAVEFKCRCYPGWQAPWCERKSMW
Protocol: In order to achieve stable, bio-active cosmeceutical formulations, a range of commercially available cosmetic ingredients were assessed for their ability to solubilize the Prunella, Linden or Star Anise extracts or mixed extracts of Prunella, Linden or Star Anise without compromising the HYAL1—inhibitory activity of the botanical extracts. These included, for example: Sepigel 305™, Simugel 600™, Arlasolve™-DMI, Carbopol® Ultrez 21, Hydrolyte®5, Hydrolyte®6 and Zemea® 1,3 Propanediol. In addition, a number of preservative/antimicrobial compounds were similarly assessed for efficacy and effects on biological activity of the added botanical extracts. These included, for example: Phenoxyethanol, Optiphen™ (Phenoxyethanol and Caprylyl Glycol), Methylparaben and Chlorphenesin.
The antimicrobial agents were incubated in a solution of 5% 1,3 Propanediol/Water containing 5 mg/ml of Epidarus Extract Mix (Prunella, Star Anise and Linden) at the indicated concentrations for 48 hours at 37 degrees Centigrade. The anti-HYAL1 activity was measured relative to a control without added antimicrobial agents.

HYAL1 [2] = target: T1, HYAL1; assay: HYAL1-inhibitory activity of Epidarus extracts after simulated digestion with additives/excipients; conditions: test ingredient with Epidarus extracts, after simulated gastric and intestinal digestion
Protocol: In order to develop bio-active formulations for osteoarthritis and bladder […] cystitis therapies in humans and animals, oral bio-availability studies were undertaken. […] Maltodextrin is a partially hydrolyzed vegetable starch and is made from corn, rice, potato starch, wheat, or other vegetable sources. […] The gastric digest was adjusted to pH 6.8 with 1M Sodium Hydroxide and mixed with an equivalent volume of Simulated Intestinal Fluid (SIF) to which was added a commercial preparation of canine pancreatic enzymes, at the following concentrations: Lipase (2,000 to 10,000 Units per ml), Protease (100 to 1,000 Units per ml), Amylase (200 to 2,000 Units per ml) and Bile Salts to 10 mM. Following the simulated complete digestion of the chew/tablet formulations, the levels of active ingredients were assayed and the HYAL1-inhibitory activity was determined. These assays were used to test a range of additives/excipients used in the production of functional nutritional supplements for human and animal use.

HYAL1 [3] = target: T1, HYAL1; assay: HYAL1 degradation of synovial fluid HA; conditions: 12 ug Synovial Fluid HA per assay, 2 hours, 37 degrees
Protocol: Human HYAL1 enzyme was isolated from urine following published protocols (Afify, A. M. et al. Archives of Biochemistry and Biophysics 305, 434-441, 1993). The enzyme activity was calibrated and validated by comparison to commercially available recombinant human HYAL1 (R&D Systems, USA).
Synovial fluid from healthy joints is a solution of 5 to 7 mg/ml of High Molecular weight Hyaluronic Acid. The bovine metacarpopharangeal joints used in these experiments were from 2 year old steers and the synovial fluid was verified by Agarose Gel electrophoresis to be composed of predominantly High MW HA.
Degradation of Synovial Fluid by urinary HYAL1 breaks down the HA to tetra-saccharides in 2 hours at 37 degrees, using a standard HYAL1 assay, testing 12 ug Synovial Fluid HA per assay.
An extract mixture containing Star Anise Pod Extract, Linden Flower Extract and Prunella Flower Spike Extract was also tested to determine the minimum concentration of extract mix required to achieve 100% inhibition of Synovial Fluid HA under the same conditions as used for pentosan polysulfate. This concentration was determined to be 280 ng/ml.

- Anti-HYAL1 Activity (HYAL1 [1]): 45%
Compound: COC(=O)c1ccc(O)cc1 [Methylparaben]

- % Inhibition of anti-HYAL1 activity (HYAL1 [2]): 0%
Compound: CCCCCCCCCCCCCCCCCC(=O)O [Stearic Acid]

- concentration causing 100% inhibition of HYAL1 (HYAL1 [3]): 156 ng/mL
Compound: pentosan polysulfate
